According to patent publication US5605929A, “Methods and compositions for inhibiting 5α-reductase activity” (priority 1995, dated 1997):
“And” between values parts separate entries of the source, which are not always exact repeats. Identical values can stand only once.

Columns and labels:
[1] = target: T1, HIV-1 reverse transcriptase (Human immunodeficiency virus type 1 group M subtype B, UniProt P04585); details: cited from earlier work
T1 construct: HIV-1 reverse transcriptase

[2] = NADPH oxidation in presence of microsomes
[3] = target: T2, α-Amylase of human saliva (Homo sapiens, UniProt P0DUB6); details: cited from earlier work
T2 construct: α-Amylase of human saliva; host or cells: human saliva
T2 sequence (P0DUB6 16-511): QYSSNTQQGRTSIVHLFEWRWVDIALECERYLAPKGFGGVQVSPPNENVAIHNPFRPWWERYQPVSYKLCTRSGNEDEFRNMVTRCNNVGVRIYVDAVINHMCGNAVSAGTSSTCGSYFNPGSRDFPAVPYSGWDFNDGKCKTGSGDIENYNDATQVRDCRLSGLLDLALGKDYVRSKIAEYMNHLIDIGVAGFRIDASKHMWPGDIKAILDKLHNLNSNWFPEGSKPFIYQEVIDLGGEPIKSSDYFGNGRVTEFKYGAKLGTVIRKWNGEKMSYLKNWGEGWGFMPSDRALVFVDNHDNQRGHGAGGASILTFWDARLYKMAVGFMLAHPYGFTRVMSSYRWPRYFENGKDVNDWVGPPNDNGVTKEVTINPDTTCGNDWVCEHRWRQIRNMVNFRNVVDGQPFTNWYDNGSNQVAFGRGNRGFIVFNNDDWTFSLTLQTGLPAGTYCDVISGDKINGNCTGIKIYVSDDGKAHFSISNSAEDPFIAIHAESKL

[4] = test system: Human prostate cancer PC-3 cells; experiment: PC-3 tumor growth in nude mice; type: in vivo, nude mice (human tumor)
Method: Human prostate cancer PC-3 cells were grown in culture medium. About one million cells were injected into male nude mice and the growth of tumors were followed. Within two weeks, the tumor grew to about 100 mm^3. […] The 3 controls received water only.

[5] = target: T3, 5α-Reductase of Rat Liver Microsomes (Rattus norvegicus, UniProt P24008); experiment: [3H]4-MA binding assay, rat liver microsomes (tea catechins)
T3 sequence (P24008 1-259): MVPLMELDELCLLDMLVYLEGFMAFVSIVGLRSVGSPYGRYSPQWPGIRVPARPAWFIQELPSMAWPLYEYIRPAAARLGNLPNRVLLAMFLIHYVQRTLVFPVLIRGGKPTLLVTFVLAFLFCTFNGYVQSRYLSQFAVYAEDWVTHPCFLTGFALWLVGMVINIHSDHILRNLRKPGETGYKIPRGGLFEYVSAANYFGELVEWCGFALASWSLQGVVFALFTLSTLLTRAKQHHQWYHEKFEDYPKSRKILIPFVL
Outline: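 Microsomes from adult female Sprague-Dawley rat liver or Rat-1A cells expressing human 5α-reductase, 25 μg protein per reaction. Incubation 30–60 min at 0 °C; microsome-bound [3H]4-MA collected on glass-fibre filters and counted. Duplicate or triplicate determinations, values based on reaction rate.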

[6] = test system: male accessory reproductive organs and preputial organs; experiment: EGCG ip 7 days, male rats, body and organ weights; type: in vivo, rat
Method: (§1) Male Sprague-Dawley rats (body weight 180 g±10 g) were used. Each group had 5 rats. […] Rats in the control group received 0.1 ml 30% ethanol.

[7] = EGCG ip 7 days, male rats, body and organ weights; type: in vivo, rat; details: based on the increase in the weight
Method: as §1

[8] = test system: flank organs, seminal vesicles, prostate and other organs
[9] = test system: PC-3; experiment: 5α-DHT formation from [3H]testosterone by PC-3 cells; type: cell-based, human; details: Homo sapiens, PC-3, read-out: 5α-DHT formed (% of control)
[10] = test system: hamster flank organ; experiment: Flank organ, castrated immature male hamsters, topical treatment; type: in vivo, Syrian golden hamster; details: for change of pigmented macule vs T alone: Table 4, T + 1 mg fatty acid
Outline: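 Castrated immature male hamsters (5 per group) received 5 μl once daily on the right flank organ of ethanol vehicle, androgen (T or 5α-DHT), fatty acid, or androgen plus fatty acid. The left organ was left untreated. Pigmented macule and sebaceous gland growth were assessed with caliper long and short axes, as mean ± SD.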

[11] = target: T3, 5α-Reductase of Rat Liver Microsomes
[12] = test system: 17β-steroid dehydrogenase; experiment: 4-Androstenedione formation from [3H]testosterone by PC-3 cells (17β-steroid dehydrogenase); type: cell-based, human
[13] = test system: LNCaP; experiment: cells; details: Homo sapiens, read-out: 5α-DHT formed (% of control)
[14] = test system: UDP-glucuronic acid:5α-DHT glucuronosyl transferase; details: 10 to 40 μM
[15] = read-out: % Inhibition of [^3 H]4-MA binding
[16] = based on the increase in the weight

In the case of `O=C(O[C@@H]1Cc2c(O)cc(O)cc2O[C@@H]1c1cc(O)c(O)c(O)c1)c1cc(O)c(O)c(O)c1` [EGCG, (-)Epigallocatechin-3-gallate], the IC50 [1] is listed as 0.04 µM, the NADPH oxidation [2] is listed as “did not induce NADPH oxidation” and the IC50 [3] is listed as 50 to 500 µM. For the same molecule, the tumor size ([4]; FIG. 33, 1 mg/day, two weeks, controls about 450) was “smaller than 100 mm^3”, the tumor size ([4]; FIG. 34, 1400 mm^3 tumor, after 2 weeks of EGCG) was “about 850 mm^3” and the tumor size ([4]; FIG. 34, 1400 mm^3 tumor, after another 2 weeks of EGCG) was “about 500 mm^3”. For the same molecule, the tumor size ([4]; FIG. 34, during the 2 week injection) was “about 100 mm^3”, the tumor size ([4]; FIG. 34, within 2 weeks after injection stopped) was “about 800 mm^3” and the tumor size ([4]; FIG. 34, within 3 weeks after injection stopped) was “over 1200 mm^3”. It also gave an IC50 [5] of 3 µM, an inhibition at 5 µM [5, 15] of 61% and an inhibition at 10 µM [5, 15] of 74%. For the same molecule, the inhibition at 20 µM [5, 15] was 79%, the inhibition at 40 µM [5, 15] was 88% and the inhibition at 200 µM [5, 15] was 93%. The final body weight ([6]; 15 mg/day, 7 days, control 238.2 ± 10.6) was 191.8 ± 12.0 g, the Coagulating gland ([6]; 15 mg/day, control 78.0 ± 5.9) was 45.5 ± 11.7 mg and the Preputial gland ([6]; 15 mg/day, control 126.8 ± 24.8) was 76.1 ± 33.1 mg. The Ventral prostate ([6]; 15 mg/day, control 201.9 ± 36.2) was 142.2 ± 10.7 mg, the “Seminal Vesicle” value ([6]; 15 mg/day, control 234.3 ± 11.7) was 164.9 ± 30.4 mg and the “Coagulating gland, % of Control, Final” value ([6]; based on the full weight) was 58.3 % of Control. For the same molecule, the “Final body weight, % of Control, Final” value ([6]; based on the full weight) was 80.5 % of Control, the “Preputial gland, % of Control, Final” value ([6]; based on the full weight) was 60.0 % of Control and the “Seminal Vesicle, % of Control, Final” value ([6]; based on the full weight) was 70.4 % of Control. For the same molecule, the “Ventral prostate, % of Control, Final” value ([6]; based on the full weight) was 70.4 % of Control, the “Coagulating gland, % of Control, Increase” value [6, 16] was 39.8 % of Control and the “Seminal Vesicle, % of Control, Increase” value [6, 16] was 52.3 % of Control. For the same molecule, the “Ventral prostate, % of Control, Increase” value [6, 16] was 62.0 % of Control and the “Body weight, % of Control, Increase” value [7] was 20.3 % of Control.

In the case of `CCCCC/C=C\C/C=C\C/C=C\CCCCC(=O)O` [γ-Linolenic acid, γ-linolenic acid], the “left flank organ area” value ([8]; after injections, control 12.9±2.2) is reported as 9.9±2.4, the “right flank organ area” value ([8]; after injections, control 14.6±1.5) is reported as 9.8±2.5 mm^2 and the adrenal weight ([8]; control 0.022±0.004 g) is reported as 0.021 ± 0.004 g. The “seminal vesicles and prostate weight” value ([8]; control 0.156±0.026 g) was 0.106 ± 0.022 g, the spleen weight ([8]; control 0.157±0.027) was 0.1867±0.048 and the kidney weight ([8]; control 1.060±0.086 g) was 1.121 ± 0.073 g. The activity at 1 µM ([9]; 1 μM) was 98 ± 6%, the activity at 5 µM ([9]; 5 μM) was 50 ± 3% and the activity at 20 µM ([9]; 20 μM) was 2 ± 2%. For the same molecule, the “inhibition of 5α-DHT-induced growth of pigmented macule” value ([10]; 0.2 to 1 mg) was “no statistically significant inhibition”, the effective dosage ([10]; T-stimulated pigmented macule, per flank organ/day) was no less than 0.2 mg and the “Pigmented Macule, Untreated (L)” value ([10]; Table 4, 1 mg fatty acid alone, 18 days) was 4.2 ± 0.6 mm^2. The “Pigmented Macule, Untreated (L)” value ([10]; Table 4, T 0.5 μg + 1 mg fatty acid) was 4.1 ± 0.3 mm^2, the “change of pigmented macule vs T alone” value ([10]; listed as LA) was -53% and the “change of pigmented macule vs T alone” value ([10]; listed as γ-LA) was 53%. The “Percent Inhibition” value ([10]; Table 5, T 0.5 μg + fatty acid 1 mg, 21 days) was 66%, the “Pigmented macule Right (+T)” value ([10]; Table 5, T 0.5 μg + fatty acid 1 mg, 21 days, T alone 49.6 ± 8.3) was 17.0 ± 6.4 mm^2 and the “Pigmented macule Left” value ([10]; Table 5, fatty acid 1 mg without T, 21 days) was 4.4 ± 1.6 mm^2. The “Pigment Macule change” value ([10]; Table 6, T + LA 0.2 mg) was -31%, the “Sebaceous Gland change” value ([10]; Table 6, T + LA 0.2 mg) was -30% and the “Pigment Macule change” value ([10]; Table 6, T + LA 0.4 mg) was -24%. The “Pigment Macule change” value ([10]; Table 6, T + LA 0.6 mg) was -45%, the “Sebaceous Gland change” value ([10]; Table 6, T + LA 0.6 mg) was -51% and the “Pigment Macule change” value ([10]; Table 6, T + LA 0.8 mg) was -32%. The “Sebaceous Gland change” value ([10]; Table 6, T + LA 0.8 mg) was -25%, the “Pigment Macule change” value ([10]; Table 6, T + LA 1.0 mg) was -34% and the “Sebaceous Gland change” value ([10]; Table 6, T + LA 1.0 mg) was -55%. For the same molecule, the maximum inhibition ([10]; daily dose of 1 to 2 mg γ-LA) was 50 to 66%, the “effect on sebaceous gland growth stimulated by 5α-DHT” value ([10]; hamster, in vivo) was “did not significantly affect” and the maximal inhibition ([10]; reached by 1 mg, T-stimulated pigmented macule) was 50%. For the same molecule, the “extent of inhibition by 10 μM γ-LA” value [11] was 93% and 52% and 88%, the “inhibition before removal of free γ-LA” value [11] was 78% and the “maximal binding of [^3 H]4-MA” value [11] was 0.45 pmol/10 μg protein and 0.40 pmol/10 μg protein. The onset of inhibition [11] was “within a minute”, the “inhibition after microsomes reisolated to remove free γ-LA” value ([11]; reversibility test) was 63% and the “4-Androstendione formed (% of control)” value ([12]; 1 μM) was 102 ± 6 % of control. The “4-Androstendione formed (% of control)” value ([12]; 5 μM) was 110 ± 1 % of control, the “4-Androstendione formed (% of control)” value ([12]; 20 μM) was 99 ± 2 % of control and the “effect on metabolism of testosterone to 4-androstenedione (17β-steroid dehydrogenase)” value ([12]; words) was “did not affect”. For the same molecule, the activity at 50 µM [13] was 27%, the activity at 100 µM [13] was 9 ± 4% and the “effect on UDP-glucuronic acid:5α-DHT glucuronosyl transferase” value [14] was “did not affect”.
